pIC50: −log10 of the molar value.
target: JAK1 (recombinant purified GST-tagged catalytic domain) (Homo sapiens (Human), UniProt P23458); test: biochemical
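Note: biochemical assay with HTRF read-out.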

Chain of JAK1 (recombinant purified GST-tagged catalytic domain) (P23458 875-1153): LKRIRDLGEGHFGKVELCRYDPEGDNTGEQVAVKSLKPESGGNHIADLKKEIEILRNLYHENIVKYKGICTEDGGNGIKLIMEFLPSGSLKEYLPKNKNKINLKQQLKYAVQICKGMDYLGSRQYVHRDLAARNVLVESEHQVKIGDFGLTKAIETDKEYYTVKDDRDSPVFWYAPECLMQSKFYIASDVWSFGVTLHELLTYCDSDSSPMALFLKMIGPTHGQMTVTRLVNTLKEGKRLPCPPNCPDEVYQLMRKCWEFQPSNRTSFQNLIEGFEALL

Row | Structure (SMILES) | pIC50
1 | CNC1CCC(n2cc(C(N)=O)c(Nc3ccc(S(=O)(=O)C(F)(F)F)cc3)n2)[C@@H](C#N)C1 (mixture of isomers) [Example 27-6, 1-[(1S,2S and 1R,2R)-2-cyano-4-(methylamino)cyclohexyl]-3-({4-[(trifluoromethyl)sulfonyl]phenyl}amino)-1H-pyrazole-4-carboxamide] | 10.10
2 | N#C[C@H]1C[C@@H](N2CC(O)(C(F)(F)F)C2)CCC1n1cc(C(N)=O)c(Nc2ccc(Cl)cc2)n1 (single isomer, unassigned) [Example 28-213, 3-[(4-chlorophenyl)amino]-1-{(1S,2S,4S or 1R,2R,4R)-2-cyano-4-[3-hydroxy-3-(trifluoromethyl)azetidin-1-yl]cyclohexyl}-1H-pyrazole-4-carboxamide] | 9.00
3 | N#C[C@@H]1CCCC[C@H]1n1cc(C(N)=O)c(Nc2ccc(F)nc2)n1 (single isomer, unassigned) [Example 17-23, 1-[(1R,2R or 1S,2S)-2-cyanocyclohexyl]-3-[(6-fluoropyridin-3-yl)amino]-1H-pyrazole-4-carboxamide] | 7.96
4 | CC1(N[C@@H]2CCC(n3cc(C(N)=O)c(Nc4ccc(Cl)cc4)n3)[C@@H](C#N)C2)CC1 (single isomer, unassigned) [Example 28-206, 3-[(4-chlorophenyl)amino]-1-{(1S,2S,4R or 1R,2R,4S)-2-cyano-4-[(1-methylcyclopropyl)amino]cyclo-hexyl}-1H-pyrazole-4-carboxamide] | 7.92
5 | C[C@@H]1C[C@@H](C)N1[C@@H]1CC[C@H](n2cc(C(N)=O)c(Nc3ccc(C(F)(F)F)cc3)n2)[C@@H](C#N)C1 (single isomer, unassigned) [Example 28-30, 1-{(1S,2S,4R or 1R,2R,4S)-2-cyano-4-[(2R,4R or 2S,4S)-2,4-dimethylazetidin-1-yl]cyclohexyl}-3-{[4-(trifluoromethyl)phenyl]amino}-1H-pyrazole-4-carboxamide] | 7.82
6 | N#C[C@H]1C[C@@H](N2CCC2)CC[C@@H]1n1cc(C(N)=O)c(Nc2ccc(OC(F)F)cc2)n1 (single isomer, unassigned) [Example 28-108, 1-[(1S,2S,4S or 1R,2R,4R)-4-azetidin-1-yl-2-cyanocyclohexyl]-3-{[4-(difluoromethoxy)phenyl]amino}-1H-pyrazole-4-carboxamide] | 8.70
7 | N#C[C@H]1CCCC[C@@H]1n1cc(C(N)=O)c(Nc2ccnc(Cl)c2)n1 (racemic) [Example 17-7, 3-[(2-chloropyridin-4-yl)amino]-1-[(1S,2S and 1R,2R)-2-cyanocyclohexyl]-1H-pyrazole-4-carboxamide] | 8.40
8 | C[C@H]1C[C@H](C)N1[C@@H]1CC[C@H](n2cc(C(N)=O)c(Nc3ccc(C(F)(F)F)cc3)n2)[C@@H](C#N)C1 (single isomer, unassigned) [Example 28-20, 1-{(1S,2S,4R or 1R,2R,4S)-2-cyano-4-[(2S,4S or 2R,4R)-2,4-dimethylazetidin-1-yl]cyclohexyl}-3-{[4-(trifluoromethyl)phenyl]amino}-1H-pyrazole-4-carboxamide] | 8.30
9 | CC(=O)c1ccc(Nc2nn([C@H]3CCCC[C@@H]3C#N)cc2C(N)=O)cc1 (single isomer, unassigned) [Example 17-27, 3-[(4-acetylphenyl)amino]-1-[(1S,2S or 1R,2R)-2-cyanocyclohexyl]-1H-pyrazole-4-carboxamide] | 9.52
10 | CN(C)[C@H]1CC[C@H](n2cc(C(N)=O)c(Nc3ccc(Cl)cc3)n2)[C@@H](C#N)C1 (single isomer, unassigned) [Example 28-117, 3-[(4-chlorophenyl)amino]-1-[(1S,2S,4S or 1R,2R,4R)-2-cyano-4-(dimethylamino)cyclohexyl]-1H-pyrazole-4-carboxamide] | 9.26
11 | N#C[C@H]1C[C@H](N2CC(O)(C(F)(F)F)C2)CC[C@@H]1n1cc(C(N)=O)c(Nc2ccc(C(F)(F)F)cc2)n1 (single isomer, unassigned) [Example 28-201, 1-{(1S,2S,4R or 1R,2R,4S)-2-cyano-4-[3-hydroxy-3-(trifluoromethyl)azetidin-1-yl]cyclohexyl}-3-{[4-(trifluoromethyl)phenyl]amino}-1H-pyrazole-4-carboxamide] | 8.70
12 | CC(C)N[C@H]1CC[C@H](n2cc(C(N)=O)c(Nc3ccc(S(=O)(=O)C(F)(F)F)cc3)n2)[C@@H](C#N)C1 (single isomer, unassigned) [Example 28-174, 1-{(1S,2S,4S or 1R,2R,4R)-2-cyano-4-[(1-methylethyl)amino]cyclohexy}-3-({4-[(trifluoro-methyl)sulfonyl]phenyl}amino)-1H-pyrazole-4-carboxamide] | 9.82
13 | N#C[C@H]1C[C@@H](N2CC3(CCC3)C2)CC[C@@H]1n1cc(C(N)=O)c(Nc2ccc(C(F)(F)F)cc2)n1 (single isomer, unassigned) [Example 28-17, 1-[(1S,2S,4S or 1R,2R,4R)-4-(2-azaspiro[3.3]hept-2-yl)-2-cyanocyclohexyl]-3-{[4-(trifluoromethyl)phenyl]amino}-1H-pyrazole-4-carboxamide] | 8.70
14 | C[C@](O)(c1ccc(Nc2nn([C@H]3CCCC[C@@H]3C#N)cc2C(N)=O)cn1)C(F)F (single isomer, unassigned) [Example 17-39, 1-[(1S,2S or 1R,2R)-2-cyanocyclohexyl]-3-({6-[(1S or 1R)-2,2-difluoro-1-hydroxy-1-methylethyl]pyridin-3-yl}amino)-1H-pyrazole-4-carboxamide] | 9.00
15 | CC(C)(C(=O)NCC(F)(F)F)c1ccc(Nc2nn([C@H]3CCCC[C@@H]3C#N)cc2C(N)=O)cc1 (single isomer, unassigned) [Example 17-57, 1-[(1S,2S or 1R,2R)-2-cyanocyclohexyl]-3-[(4-{1,1-dimethyl-2-oxo-2-[(2,2,2-trifluoroethyl)amino]ethyl}phenyl)amino]-1H-pyrazole-4-carboxamide] | 9.70
16 | COC1CN([C@H]2CC[C@H](n3cc(C(N)=O)c(Nc4ccc(C(F)(F)F)cc4)n3)[C@@H](C#N)C2)C1 (single isomer, unassigned) [Example 28-99, 1-[(1S,2S,4S or 1R,2R,4R)-2-cyano-4-(3-methoxyazetidin-1-yl)cyclohexyl]-3-{[4-(trifluoromethyl)phenyl]amino}-1H-pyrazole-4-carboxamide] | 8.52
17 | N#C[C@H]1CC(NCCO)CCC1n1cc(C(N)=O)c(Nc2ccc(S(=O)(=O)C(F)(F)F)cc2)n1 (mixture of isomers) [Example 27-15, 1-{(1S,2S and 1R,2R)-2-cyano-4-[(2-hydroxyethyl)amino]cyclohexyl}-3-({4-[(trifluoromethyl)sulfonyl]phenyl)amino)-l/f-pyrazolc-4-carboxamide] | 9.46
18 | COC(C)(C)c1ccc(Nc2nn([C@H]3CC[C@@H](O)C[C@@H]3C#N)cc2C(N)=O)cc1 (single isomer, unassigned) [Example 25-11, 1-[(1S,2S,4R or 1R,2R,4S)-2-cyano-4-hydroxycyclohexyl]-3-{[4-(1-methoxy-1-methylethyl)phenyl]amino}-1H-pyrazole-4-carboxamide] | 9.35

Second part, the molecule after the results:

Row | pIC50 | Structure (SMILES)
19 | 7.68 | N#C[C@@H]1C[C@H](C(=O)N[C@H](C2CC2)C(F)(F)F)CC[C@H]1n1cc(C(N)=O)c(Nc2ccc(Cl)cc2)n1 (single isomer, unassigned) [Example 35-25, 3-[(4-chlorophenyl)amino]-1-[(1R,2R,4R or 1S,2S,4S)-2-cyano-4-{[(1R)-1-cyclopropyl-2,2,2-trifluoroethyl]carbamoyl}cyclohexyl]-1H-pyrazole-4-carboxamide]
20 | 8.52 | N#C[C@H]1C[C@@H](C(=O)N2CC(F)C2)CC[C@@H]1n1cc(C(N)=O)c(Nc2ccc(Cl)cc2)n1 (single isomer, unassigned) [Example 35-34, 3-[(4-chlorophenyl)amino]-1-{(1S,2S,4S or 1R,2R,4R)-2-cyano-4-[(3-fluoroazetidin-1-yl)carbonyl]cyclohexyl}-1H-pyrazole-4-carboxamide]
21 | 7.21 | N#C[C@H]1C[C@@H](C(=O)N2CC(F)(F)C2)CC[C@@H]1n1cc(C(N)=O)c(Nc2ccc(Cl)cc2)n1 (single isomer, unassigned) [Example 35-6, 3-[(4-chlorophenyl)amino]-1-{(1S,2S,4S or 1R,2R,4R)-2-cyano-4-[(3,3-difluoroazetidin-1-yl)carbonyl]cyclohexyl}-1H-pyrazole-4-carboxamide]
22 | 8.05 | N#C[C@@H]1C[C@H](C(=O)N2CC(F)C2)CC[C@H]1n1cc(C(N)=O)c(Nc2ccc(Cl)cc2)n1 (single isomer, unassigned) [Example 35-33, 3-[(4-chlorophenyl)amino]-1-{(1R,2R,4R or 1S,2S,4S)-2-cyano-4-[(3-fluoroazetidin-1-yl)carbonyl]cyclohexyl}-1H-pyrazole-4-carboxamide]
23 | 8.05 | N#C[C@@H]1C[C@H](C(=O)N[C@@H](C2CC2)C(F)(F)F)CC[C@H]1n1cc(C(N)=O)c(Nc2ccc(Cl)cc2)n1 (single isomer, unassigned) [Example 35-16, 3-[(4-chlorophenyl)amino]-1-[(1R,2R,4R or 1S,2S,4S)-2-cyano-4-{[(1S)-1-cyclopropyl-2,2,2-trifluoroethyl]carbamoyl}cyclohexyl]-1H-pyrazole-4-carboxamide]
24 | 8.70 | N#C[C@@H]1CCCCC1n1cc(C(N)=O)c(Nc2ccc(S(=O)(=O)CC(F)(F)F)cc2)n1 (single isomer, unassigned) [Example 43-7, 1-[(1S,2S or 1R,2R)-2-cyanocyclohexyl]-3-({4-[(2,2,2-trifluoroethyl)sulfonyl]phenyl}amino)-1H-pyrazole-4-carboxamide]
25 | 8.05 | N#C[C@H]1C[C@@H](C(=O)N[C@H](C2CC2)C(F)(F)F)CC[C@@H]1n1cc(C(N)=O)c(Nc2ccc(Cl)cc2)n1 (single isomer, unassigned) [Example 35-14, 3-[(4-chlorophenyl)amino]-1-[(1S,2S,4S or 1R,2R,4R)-2-cyano-4-{[(1R)-1-cyclopropyl-2,2,2-trifluoroethyl]carbamoyl}cyclohexyl]-1H-pyrazole-4-carboxamide]
26 | 8.52 | C[C@@]1(O)CC[C@H](n2cc(C(N)=O)c(Nc3ccc(Cl)cc3)n2)[C@@H](C#N)C1 (single isomer, unassigned) [Example 32-13, 3-[(4-chlorophenyl)amino]-1-[(1S,2S,4R or 1R,2R,4S)-2-cyano-4-hydroxy-4-methylcyclohexyl]-1H-pyrazole-4-carboxamide]

— patent US8962608B2, “Cycloalkylnitrile pyrazole carboxamides as janus kinase inhibitors” (Merck Sharp & Dohme Corp., priority 2011, dated 2015)
